Data from publication PMC5915530, “Immunosilencing peptides by stereochemical inversion and sequence reversal: retro-D-peptides” (Scientific Reports, 2018).
Non-standard residues stand in square brackets, D forms with d. Residues, ends and D or L forms follow the SMILES beside them.

Experiments:
BALB/c mice = experiment: Mouse immunization with unconjugated peptides, titration of peptide-specific antibodies in serum by ELISA; type: in vivo; settings: seven i.p. doses of 50 μg, BALB/c mice (four per group), CFA first dose, IFA boosters, PBS last, ELISA on peptide-BSA conjugate, serum diluted from 1:100, anti-Mouse IgG-HRP, read at 450 nm, Fig. 3a, b
Text: To date, several studies have used D-peptides as tools for vaccine development. In these cases the peptides have been conjugated to large supramolecular entities, e.g. KLH and small unilamelar liposomes containing monophosphoryl lipid A[23],[24]. Nevertheless, the use of retro-D-peptides as therapeutics was controversial twenty years ago[25],[26]. Thus, to shed light on the immunogenicity of D-peptides and add further value to these compounds, we evaluated the immunological responses activated by retro-D-THR and retro-D-HAI peptides and compared them to that of their parent peptides. For this purpose, peptides (not conjugated) were i.p. administered to mice, and antibody titration was used as parameter to evaluate immunological (humoral) response by ELISA.
Four groups of four BALB/c mice were treated with either one of the parent peptides or their retro-D-version. Each mouse received seven doses i.p. of 50 μg of peptide. Complete Freund’s[49] adjuvant (CFA) was administered in the first dose, incomplete Freund’s adjuvant (IFA) in the subsequent five booster injections, and PBS in the last one. Bleedings for the titration of specific antibody production were performed before the first dose (time zero bleeding) and five days after the fourth and last dose (Supplementary Scheme 1). The peptide-specific humoral response was quantified by ELISA. MaxiSorp plates (Nunc) were treated with 0.1 mL of the corresponding peptide-BSA conjugate (1 μg) per well in carbonate buffer, overnight at 4 °C (Supplementary Fig. 6b). Afterwards, plates were blocked with 0.2 mL PBS-Tween 20 (T20) containing 2% of milk powder for 2 h a 37 °C. Each sample serum was consecutively diluted 1/2 (starting by dilution 1:100) in PBS-T20 and incubated for 1 h at 37 °C. Incubation with a secondary antibody (dil. 1/5,000) anti-Mouse IgG-HRP (ref. R1253HRP; batch 26922; Acris) was left for 1 h at 37 °C. Washes (x3) with PBST (300 μl/well) were applied after each antibody incubation. Finally, TMB (100 μl/well) was added and left for 30 min, when the stop solution (100 μl, HClaq 1 N) blocked the colorimetric reaction. Plates were read at 450 nm (Fig. 3a–c). […]
Data were processed using GraphPad Prism 6.0 software. […] Data from human serum stability assays were analyzed as non-linear one-phase exponential decay model for L-peptides and as standard linear model with zero slope for D-peptides. Deviations from a value of 100 at each dilution point were assessed using a linear model, in which group and interaction were included as covariates. In immune response studies, each dilution point (in ELISAs) was analyzed by a Mann-Whitney test to assess differences between S0 with S1 or S2. […]

Protease resistance = type: in vitro ADME; settings: as stated in abstract
Method: Data were processed using GraphPad Prism 6.0 software. All results are presented as mean + SEM. Data from human serum stability assays were analyzed as non-linear one-phase exponential decay model for L-peptides and as standard linear model with zero slope for D-peptides. Deviations from a value of 100 at each dilution point were assessed using a linear model, in which group and interaction were included as covariates. In immune response studies, each dilution point (in ELISAs) was analyzed by a Mann-Whitney test to assess differences between S0 with S1 or S2. In both cases, 5% was set as a threshold for statistical significance.

[1] = demonstrated earlier by the authors' laboratory; ref 21 (printed for retro-D-THR); cited from earlier work
Text: (§1) We have applied this previously described strategy to a family of peptide BBB shuttles (H2N-HAIYPRH-CONH2 and H2N-THRPPMWSPVWP-CONH2[14], namely HAI and THR peptides, respectively). BBB shuttles are molecular entities of diverse origin, e.g. synthetic or natural peptides, which have the capacity to cross the blood-brain barrier (BBB) and, when covalently conjugated to drugs unable to cross the BBB unaided, can deliver them into the central nervous system (CNS)[15]. Those that cross through receptor-mediated transcytosis are also included in the term ‘molecular Trojan horses’[16],[17]. Although ...

[2] = tested on: blood-brain barrier (BBB); settings: parent versions, in several studies; ref not given; cited from earlier work
Text: as §1

Row | immunogenicity (peptide-specific humoral response, antibody titration) (BALB/c mice) | protease resistance (Protease resistance) | Molecule | immunogenicity (peptide-specific humoral response, antibody titration) (BALB/c mice; listed as H2N-hrpyiah-CONH2) | protease-resistance [1] | immunogenicity (peptide-specific humoral response, antibody titration) (BALB/c mice; listed as H2N-pwvpswmpprht-CONH2) | BBB permeability [2]
1 | not immunogenic per se | protease-resistant | CC[C@@H](C)[C@@H](NC(=O)[C@@H](Cc1ccc(O)cc1)NC(=O)[C@H]1CCCN1C(=O)[C@@H](CCCNC(=N)N)NC(=O)[C@H](N)Cc1c[nH]cn1)C(=O)N[C@H](C)C(=O)N[C@H](Cc1c[nH]cn1)C(N)=O [retro-D-HAI] | much less immunogenic than the parent peptide | protease-resistance |  | 
2 | not immunogenic per se | protease-resistant | CSCC[C@@H](NC(=O)[C@@H](Cc1c[nH]c2ccccc12)NC(=O)[C@@H](CO)NC(=O)[C@H]1CCCN1C(=O)[C@H](NC(=O)[C@@H](Cc1c[nH]c2ccccc12)NC(=O)[C@H]1CCCN1)C(C)C)C(=O)N1CCC[C@@H]1C(=O)N1CCC[C@@H]1C(=O)N[C@H](CCCNC(=N)N)C(=O)N[C@H](Cc1c[nH]cn1)C(=O)N[C@@H](C(N)=O)[C@H](C)O [retro-D-THR] (H-[dP][dW][dV][dP][dS][dW][dM][dP][dP][dR][dH][dT]-NH2) |  | protease-resistance | much less immunogenic than the parent peptide | 
3 |  |  | H2N-HAIYPRH-CONH2 [parent L-peptide BBB shuttle, H2N-HAIYPRH-CONH2] |  |  |  | efficient BBB permeability
4 |  |  | H2N-THRPPMWSPVWP-CONH2 (H-THRPPMWSPVWP-NH2) [parent L-peptide BBB shuttle, H2N-…-CONH2] |  |  |  | efficient BBB permeability
